From patent US6794402B2, “Bicyclic cyclohexylamines and their use as NMDA receptor antagonists” (Warner-Lambert Company, priority 2000, dated 2004)

Tests used:
NR1A/NR2B NMDA receptor = NR1A/NR2B NMDA receptor (Rattus norvegicus, UniProt P35439+Q00960); test: Electrophysiological assay at NMDA receptor subunits expressed in Xenopus oocytes; format: cell-based; conditions: cloned rat NR1A/NR2B in Xenopus oocytes, two-electrode voltage clamp, glutamate 100 μM + glycine 1-100 μM; read-out: NR1A/NR2B Oocyte IC50
Chain of NR1A/NR2B NMDA receptor (Q00960 27-1482, other chains not shown): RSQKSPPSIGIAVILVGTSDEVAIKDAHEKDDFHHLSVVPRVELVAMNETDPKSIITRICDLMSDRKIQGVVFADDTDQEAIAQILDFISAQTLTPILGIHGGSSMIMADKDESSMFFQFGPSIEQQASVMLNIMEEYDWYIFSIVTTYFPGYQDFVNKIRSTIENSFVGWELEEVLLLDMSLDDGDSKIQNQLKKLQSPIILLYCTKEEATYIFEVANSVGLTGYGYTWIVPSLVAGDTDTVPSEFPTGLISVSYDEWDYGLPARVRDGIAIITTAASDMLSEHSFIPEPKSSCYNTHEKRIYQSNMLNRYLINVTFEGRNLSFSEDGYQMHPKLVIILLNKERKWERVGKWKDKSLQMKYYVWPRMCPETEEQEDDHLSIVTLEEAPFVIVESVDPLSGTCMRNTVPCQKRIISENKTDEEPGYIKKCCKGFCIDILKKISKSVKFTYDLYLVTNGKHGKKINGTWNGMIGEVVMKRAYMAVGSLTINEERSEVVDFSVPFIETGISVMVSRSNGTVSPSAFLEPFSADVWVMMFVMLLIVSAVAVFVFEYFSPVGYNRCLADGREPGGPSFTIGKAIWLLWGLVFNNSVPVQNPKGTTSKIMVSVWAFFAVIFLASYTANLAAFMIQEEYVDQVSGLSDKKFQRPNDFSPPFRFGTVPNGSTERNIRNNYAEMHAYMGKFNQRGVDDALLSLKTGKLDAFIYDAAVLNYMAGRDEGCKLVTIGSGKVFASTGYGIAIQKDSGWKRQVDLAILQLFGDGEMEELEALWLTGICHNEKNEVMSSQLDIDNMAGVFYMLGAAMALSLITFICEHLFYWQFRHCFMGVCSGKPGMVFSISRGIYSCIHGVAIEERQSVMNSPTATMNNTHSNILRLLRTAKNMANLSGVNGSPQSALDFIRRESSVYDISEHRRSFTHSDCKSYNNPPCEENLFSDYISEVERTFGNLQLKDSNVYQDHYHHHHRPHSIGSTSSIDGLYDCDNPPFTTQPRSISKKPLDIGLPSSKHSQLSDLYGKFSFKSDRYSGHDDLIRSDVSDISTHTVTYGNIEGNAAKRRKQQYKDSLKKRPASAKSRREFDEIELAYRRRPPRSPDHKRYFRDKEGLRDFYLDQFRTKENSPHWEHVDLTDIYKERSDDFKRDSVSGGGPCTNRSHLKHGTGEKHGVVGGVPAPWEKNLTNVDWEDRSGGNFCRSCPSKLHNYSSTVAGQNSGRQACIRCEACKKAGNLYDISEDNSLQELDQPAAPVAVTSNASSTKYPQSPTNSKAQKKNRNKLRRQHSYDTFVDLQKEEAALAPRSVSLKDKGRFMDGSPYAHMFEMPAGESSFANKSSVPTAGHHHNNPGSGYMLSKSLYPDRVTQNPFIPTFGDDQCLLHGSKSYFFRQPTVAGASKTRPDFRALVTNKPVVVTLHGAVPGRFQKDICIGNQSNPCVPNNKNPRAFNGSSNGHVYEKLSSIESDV
Excerpt: Preparation of RNA. cDNA clones encoding the NR1A, NR2A, NR2B, and NR2C rat NMDA receptor subtypes were used (see, Moriyoshi, supra., 1991; Kutsuwada et al., supra., 1992; Monyer et al., supra, 1992; Ikeda et al., FEBS Lett., 1992;313:34-38; Ishii et al., J. Biol. Chem., 1993;268:2836-2843 for details of these clones or their mouse homologs). The clones were transformed into appropriate host bacteria and plasmid preparations were made with conventional DNA purification techniques. A sample of each clone linearized by restriction enzyme digestion […] was synthesized with T3 RNA polymerase. The cRNA was diluted to 400 ng/μL and stored in 1-μL aliquots at −80° C. until injection.
The Xenopus oocyte expression system. Mature female Xenopus laevis were anaesthetized (20-40 minutes) using 0.15% 3-aminobenzoic acid ethyl ester (MS-222), and 2 to 4 ovarian lobes were surgically removed. Oocytes at developmental stages IV-VI (Dumont J. N., J. Morphol., 1972;136:153-180) were dissected from the ovary still surrounded by enveloping ovarian tissues. Follicle-enclosed oocytes were microinjected with 1:1 mixtures of NR1A:NR2A, 2B or 2C; injecting 1 to 10 ng of RNA encoding each receptor subunit. NR1A encoding RNA was injected alone at ˜20 ng. Oocytes were stored in Barth's medium containing (in mM): NaCl, 88; KCl, 1; CaCl2, 0.41; Ca (NO3)2, 0.33; MgSO4, 0.82; NaHCO3, 2.4; HEPES 5; pH 7.4, with 0.11 mg/mL gentamicin sulphate. While oocytes were still surrounded by enveloping ovarian tissues, the Barth's medium was supplemented with 0.1% bovine serum. Oocytes were defolliculated 1 to 2 days following injections by treatment with collagenase (0.5 mg/mL Sigma Type I for 0.5-1 hr)-(Miledi and Woodward, J. Phsyiol., (Lond) 1989;416:601-621) and subsequently stored in serum-free medium.
Electrical recordings were made using a conventional two-electrode voltage clamp (Dagan TEV-200) over periods ranging between 3 to 21 days following injection (Woodward et al., Mol. Pharmacol., 1992;41:89-103). Oocytes were placed in a 0.1-mL recording chamber continuously perfused (5 mL-15 mL min^−1) with frog Ringer's solution containing (in mM): NaCl, 115; KCL, 2; BaCl2, 1.8; HEPES, 5; and pH 7.4. Drugs were applied by bath perfusion. Using oocytes expressing different subunit combinations of NMDA receptor, NMDA currents were activated by co-application of glutamate (100 μM) and glycine (1-100 μM). Inhibitory potency of the novel antagonists was assessed on responses elicited by fixed concentrations of glutamate and glycine, by measuring reductions in current induced by progressively increasing concentrations of antagonist.
Concentration-inhibition curves were fit with Equation 1.
I/Icontrol=1/(1+([antagonist]/10−^pIC50)^n) Eq. 1
In which Icontrol is the current evoked by agonists alone, pIC50=−log IC50, IC50 is the concentration of antagonist that produced half maximal inhibition, and n is the slope factor (De Lean et al., Am. J. Physiol., 1978;235:E97-102). For incomplete curves, analysis by fitting was unreliable and IC50 values were calculated by simple regression over linear portions of the curves (Origin: Microcal Software).

[1] = target: T1, [3H]ifenprodil binding site, rat forebrain membranes (Rattus norvegicus, UniProt P35439+Q00960); test: [3H]Ifenprodil binding assay; conditions: 4 nM [3H]-ifenprodil, 2 hours at room temperature
T1 construct: membrane fraction was prepared from frozen adult rat forebrains; tissue Zivic-Miller Laboratories, Inc; host or cells: adult rat forebrain, washed buffy coat membrane fraction
T1 sequence (Q00960 27-1482, other chains not shown): as above
Procedure, shortened: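 Washed rat forebrain buffy coat membranes (100-200 μg protein) were incubated with 4 nM [3H]ifenprodil in 20 mM HEPES-KOH pH 7.4 for 2 hours at room temperature, in triplicate, then filtered on PEI-soaked GF/B filters. Nonspecific binding was set with 1 mM ifenprodil. IC50 came from a one- or two-site competition fit.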

[2] = test system: 6-Hydroxydopamine-lesioned rats; test: 6-OHDA lesioned rat assay; format: in vivo; conditions: for 6-OHDA MED: minimum effective dose to potentiate contraversive rotation induced by L-DOPA methyl ester 10 mg/kg SC, 6-hour period; for 6-OHDA active/inactive at the given dose: statistically significant increase in contraversive rotations vs L-DOPA only
Description: 6-Hydroxydopamine-lesioned rats were used (see Ungerstedt U., Arbuthnott G. W., Quantitative recording of rotational behavior in rats after 6-hydroxy-dopamine lesions of the nigrostraiatal dopamine system. Brain Res., 1971;24(3):485-93). Adult male Sprague-Dawley rats were anesthetized with chloral hydrate and unilateral lesions of the nigrostriatal dopamine system were accomplished by infusion of 8 μg of 6-hydroxydopamine HBr (6-OHDA) into the right medial forebrain bundle. Rats were pretreated 30 minutes before surgery with desipramine HCl 25 mg/kg intraperitoneally (IP) to protect noradrenegic neurons, and pargyline 25 mg/kg IP to potentiate the effects of 6-OHDA. A minimum of 3 weeks after surgery, the rotational behavior induced by apomorphine HCL 50 μg/kg subcutaneously (SC) was assessed.
Rotational behavior was measured using an automatic rotometer system (Rotorat Rotational Activity System, MED Associates, Georgia, Vt.). Anti-parkinsonian activity was assessed as the ability of the compound to potentiate the contraversive rotation induced by L-DOPA methyl ester, 10 mg/kg SC, over a 6-hour period. Experiments were conducted using a crossover paradigm where each rat received either a vehicle plus L-DOPA, or the test compound plus L-DOPA, in randomized order. Rats were tested at 7-day intervals. In experiments in which the compound was tested orally, rats were food deprived for 16 hours. Statistical analysis between treatment groups were performed using a paired t-test. The results were reported in Table 1 as the minimum effective dose (MED) of compound (mg/kg) required to produce a statistically-significant increase in total contraversive rotations compared to rats receiving L-DOPA only.

Row | IC50 (NR1A/NR2B NMDA receptor) | IC50 [1] | melting point | Compound | 6-OHDA MED [2] | 6-OHDA active/inactive at the given dose [2]
1 | 100 nM | 40 nM | 172 to 176 °C | O=c1[nH]c2ccc([C@H]3CC[C@H](NCCOc4ccc(F)cc4)CC3)cc2o1 [Example 2, 6-{trans-4-[2-(4-Fluorophenoxy)ethylamino]cyclohexyl}-3H-benzoxazol-2-one] | 10.0 mg/kg | active
2 | 65 nM | 9 nM | 62 to 65 °C | CN(CCCc1ccc(F)cc1)[C@H]1CC[C@H](c2ccc3[nH]c(=O)oc3c2)CC1 [Example 18, 6-(trans-4-{[3-(4-Fluorophenyl)propyl]methylaamino}cyclohexyl)-3H-benzoxazol-2-one] | 10 mg/kg | active
3 | 100 nM |  | 159 to 162 °C | O=c1[nH]c2ccc([C@H]3CC[C@H](NCCOc4ccccc4)CC3)cc2o1 [Example 3, 6-[trans-4-(2-Phenoxyethylamino)cyclohexyl]-3H-benzoxazol-2-one] | 10.0 mg/kg | active
4 | 30 nM | 4 nM | 166 to 170 °C | O=c1[nH]c2ccc([C@H]3CC[C@H](NCCCc4ccccc4)CC3)cc2o1 [Example 1, 6-[trans-4-(3-Phenylpropylamino)cyclohexyl]-3H-benzoxazol-2-one] | 30 mg/kg | active
